In patent US20190134039A1, “ANTIVIRAL JAK INHIBITORS USEFUL IN TREATING OR PREVENTING RETROVIRAL AND OTHER VIRAL INFECTIONS” (EMORY UNIVERSITY, priority 2011, published 2019):
Entries after “also recorded” stand apart in the source; their conditions may differ. Where two headings read alike, the source gives them in different places.

Columns and labels:
[1] = test system: PHA + IL-2 PBM cells; assay: cells; details: Homo sapiens, PBMC, read-out: IC50 in PHA + IL-2 PBM cells *MTT Assay
[2] = test system: HIV-1 containing L74V; assay: microbe, parasite or virus in culture; assay type: cell-based; details: Human immunodeficiency virus 1, Lymphocyte
[3] = test system: PHA stimulated PBM cells; assay: cells; details: Homo sapiens, PBMC, read-out: IC50 in PHA stimulated PBM cells *MTT Assay
[4] = test system: Mφ; assay: cells; details: Homo sapiens, read-out: IC50 in Mφ *MTT Assay
[5] = test system: HIV-1 containing A62V/V75I/F77L/F116Y/Q151M; assay: microbe, parasite or virus in culture; assay type: cell-based; details: Human immunodeficiency virus 1, Lymphocyte
[6] = test system: HIV-1BaL; assay: microbe, parasite or virus in culture; details: for EC90: read-out: Anti-HIV-1 EC90 in acutely infected MΦ
Experimental: Macrophages were isolated as follows: Monocytes were isolated from buffy coats of HIV-1 negative, HBV/HCV-negative donors with density gradient centrifugation coupled with enrichment for CD14+ monocytes with Rosette Sep antibody cocktail (Stem Cell Technologies, Vancouver, British Columbia). Cells were seeded at a concentration of 1.0×10^6 cells/well for 1 hr at 37° C. and 5% CO2 to confer plastic adherence prior to repeated washes with 1×PBS. Macrophages were maintained in medium containing 100 U/ml macrophage colony-stimulating factor (m-CSF, R&D Systems, Minneapolis, Minn.), supplemented with 20% fetal calf serum (Atlanta Biologicals, Lawrenceville, Ga.) and 1% penicillin/streptomyocin (Invitrogen, Carlsbad, Calif.) for 7 days (37° C., 5% CO2) prior to testing.
Macrophage infections: Macrophages were cultured as described above for 7 days. […] 4 hrs after infection, virus was removed and drug-containing medium was returned to the cultures. Supernatants were collected on day 7 post-infection and HIV-1 p24 was quantified via ELISA (Zeptometrix Corporation, Buffalo, N.Y.). EC50 analysis was performed using CalcuSyn software (BioSoft Corporation, Cambridge, UK).

[7] = test system: HIV-2; assay: microbe, parasite or virus in culture; details: Human immunodeficiency virus 2, PBMC; for EC90: read-out: Anti-HIV-2 EC90 in acutely infected PBM cells
[8] = test system: wild-type HIV-1xxLAI; assay: Antiviral potency in primary human lymphocytes, wild type; assay type: cell-based; details: Human immunodeficiency virus 1, Lymphocyte; xxLAI; primary human lymphocytes; read-out: EC90
[9] = test system: HIV-1 containing 4xAZT (D67N/K70R/T215Y/K219Q); assay: microbe, parasite or virus in culture; assay type: cell-based; details: Human immunodeficiency virus 1, Lymphocyte
[10] = test system: PBM cells; assay: cells; details: Homo sapiens, PBMC, read-out: IC50 in PBM cells *Propidium Iodide assay
[11] = test system: HIV-1 containing M184V; assay: microbe, parasite or virus in culture; assay type: cell-based; details: Human immunodeficiency virus 1, Lymphocyte
[12] = test system: HIV-1 containing K65R; assay: microbe, parasite or virus in culture; assay type: cell-based; details: Human immunodeficiency virus 1, Lymphocyte
[13] = test system: HIV-1LAI; assay: microbe, parasite or virus in culture; details: for EC90: read-out: Anti-HIV-1 EC90 in acutely infected PBM cells
Text: PBM cells were isolated as follows: Lymphocytes were isolated from buffy coats derived from healthy donors obtained from Life South Laboratories (Dunwoody, Ga.). Activated lymphocytes were maintained for 72 hrs in medium that was supplemented with […] phytohemagglutinin (PHA) (Cape Cod associates, East Falmouth, Mass.). Media was comprised of RPMI media supplemented with 20% fetal calf serum, 1% penicillin/streptomyocin and 2% L-glutamine (Sigma Aldrich, San Jose, Calif.).
PBM cell infections: Testing was performed in duplicate with at least 3 independent assays. Cells were incubated in RPMI medium (HyClone, Logan, Utah) containing HR-IL2 (26.5 units/ml) and 20% fetal calf serum. Infections were performed by adding HIV-1LA1 followed by a further incubation at 37° C., 5% CO2, 1 hr prior to addition of drugs. Assays were performed in 24 well plates (BD Biosciences, Franklin Lakes, N.J.). One ml of supernatant was collected after 5 days in culture and then centrifuged at 12,000 rpm for 2 hr at 4° C. in a Jouan Br43i (Thermo Electron Corp., Marietta, Ohio). The product of the RT assay was quantified using a Packard harvester and direct beta counter and the data were analyzed as previously described (Schinazi et al, 1990).

[14] = test system: acute infection in rhesus macaque macrophages; assay: cells; details: for EC90: read-out: Acute infection in rhesus macaque macrophages EC90
Text: (§1) The data (Shown in Table 5 below) are mean and standard deviations from at least three independent experiments.

[15] = test system: acute infection in rhesus macaque lymphocytes; assay: cells; details: Macaca mulatta, Lymphocyte; for EC90: read-out: Acute infection in rhesus macaque lymphocytes EC90
Text: as §1

[16] = test system: pSTAT1; details: primary CD4+T lymphocytes
[17] = test system: activated PBM cells; assay type: cell-based, human
Text: The data is shown in FIG. 2, in terms of total cell number (10^6 cells) versus aM drug in medium.
The data is shown in FIG. 3, in terms of cell viability (%) versus aM drug in medium.

[18] = test system: pSTAT3; details: primary CD4+T lymphocytes
[19] = test system: pSTAT3; assay: cells; details: read-out: EC90 pSTAT3
[20] = test system: various NRTI-resistant HIV-1; assay: Antiviral potency against various NRTI-resistant HIV-1 in primary human lymphocytes (summary over strains); assay type: cell-based; details: K65R, M184V, L74V, A62V/V75I/F77L/F116Y/Q151M, 4xAZT
Text: FI50 is the ratio of EC50 against mutant virus:EC50 against wild-type xxLAI. FI90 is the ratio of EC90 against mutant virus:EC90 against wild-type xxLAI.

[21] = test system: PHA stimulated primary human lymphocytes; assay: Proliferation and viability of PHA stimulated primary human lymphocytes; assay type: cell-based; details: 5 days, all concentrations
Experimental: (§2) The effect of various Jak inhibitors on proliferation and viability of PHA or PHA+IL-2 stimulated primary human lymphocytes was evaluated using the techniques described above.
(§3) For all experiments, cells were incubated with media alone or drug-containing medium for 5 days prior to assessment of cell count and viability. Data are mean and standard deviations for at least three independent experiments conducted with at least 4 pooled donors, and duplicates within each experiment.

[22] = test system: latent HIV-1; assay: Reactivation of latent HIV-1 in primary human macrophages (PMA, p24 ELISA); assay type: cell-based; details: drug applied during reactivation, removed thereafter, within 72 hr post reactivation
[23] = test system: pSTAT5; details: primary CD4+T lymphocytes
[24] = test system: latent HIV-1; assay: Reactivation of latent HIV-1 in memory CD4+ T cells from ART treated aviremic donors; assay type: cell-based; details: CD4 T cells from HIV-infected individuals; alone and in the presence of HAART
Experimental: (§4) FIGS. 11 A-E are graphicals showing that Jak inhibitors reduce frequency of cells harboring integrated viral DNA and IL-15-induced reactivation of latent HIV-1 in CD4 T cells. CD4 T cells were isolated from viremic donors and incubated with CD3/CD28 plus 0.01, 0.1, 1.0 or 10 μM of Jak inhibitors with or without EC99 of ART (180 nM zidovudine, 100 nM efavirenz, 200 nM Raltegravir) (A and B). After six days, integrated viral DNA was quantified using ultra sensitive Alu PCR versus DMSO controls (n=5). 0.01 μM represents the average of all assays completed using % DMSO equivalent to Jak inhibitor concentrations. Error bars represent S.E.M. and statistical significance determined by two-way ANOVA followed by Sidak's multiple comparison post-test: *p<0.05, **p<0.01, ***p<0.001 and ****p<0.0001 for A and B. In panel C-E, memory CD4^+ T cells were isolated from ART treated aviremic donors (n=3), activated with 10 ng/ml IL-15 (panel D) or CD3/CD28 (panel E) and maintained with or without 1 μM ruxolitinib in the presence of ART. Six days post reactivation, extracellular viral RNA copies were quantified by qRT-PCR (*p<0.01, one-way ANOVA).

[25] = test system: PHA+IL-2 stimulated primary human lymphocytes; assay: Proliferation and viability of PHA+IL-2 stimulated primary human lymphocytes; assay type: cell-based; details: PHA+IL-2 stimulated lymphocytes, 5 days
Experimental: as §2, §3

[26] = test system: integrated viral DNA; assay: Integrated viral DNA in CD4 T cells from viremic donors (Alu PCR); assay type: cell-based; details: CD4 T cells from HIV-infected individuals; alone and in the presence of HAART
Experimental: as §4

[27] = Human immunodeficiency virus 1, Macrophage, in Homo sapiens
[28] = Human immunodeficiency virus 1, PBMC, in Homo sapiens

SMILES: Cc1cn([C@H]2C[C@H](N=[N+]=[N-])[C@@H](CO)O2)c(=O)[nH]c1=O [AZT, 3′-azido-3′-deoxythymidine]
- CC50 [1]: > 100000 nM
- EC50 [2]: 20 ± 20 nM
- EC90 [2]: 200 ± 100 nM
- IC50 [3]: > 100000 nM
- IC50 [4]: > 100000 nM
- EC50 [5]: 4600 ± 7700 nM
- EC90 [5]: 41200 ± 50200 nM
- EC50 ([6]; Human immunodeficiency virus 1, Macrophage, in Homo sapiens, read-out: Anti-HIV-1 EC50 in acutely infected MΦ): 10 ± 20 nM
- EC90 [6, 27]: 70 ± 120 nM
- EC50 ([7]; read-out: Anti-HIV-2 EC50 in acutely infected PBM cells): 1 ± 0.8 nM
- EC90 [7]: 10 ± 10 nM
- EC90 [8]: 100 ± 80 nM
- EC50 [9]: 100 ± 100 nM
- EC90 [9]: 53300 ± 66100 nM
- IC50 [10]: > 50000 nM
- EC50 [11]: 10 ± 20 nM
- EC90 [11]: 20 ± 10 nM
- EC50 [12]: 40 ± 20 nM
- EC90 [12]: 300 ± 100 nM
- EC50 ([13]; Human immunodeficiency virus 1, PBMC, in Homo sapiens, read-out: Anti-HIV-1 EC50 in acutely infected PBM cells): 20 ± 8 nM
- EC90 [13, 28]: 130 ± 30 nM
- EC50 ([14]; Macaca mulatta, Macrophage, read-out: Acute infection in rhesus macaque macrophages EC50): 80 ± 100 nM
- EC90 ([14]; Macaca mulatta, Macrophage): 900 ± 700 nM
- EC50 ([15]; read-out: Acute infection in rhesus macaque lymphocytes EC50): 2 ± 1 nM
- EC90 [15]: 30 ± 20 nM

SMILES: C[C@@H]1CCN(C(=O)CC#N)C[C@@H]1N(C)c1ncnc2[nH]ccc12 [Tofacitinib, 3-{(3R,4R)-4 methyl-3-[methyl-(7H-pyrrolo[2,3-d]pyrimidin-4-yl)-amino]-piperidin-1-yl}-3-oxo-propionitrile]
- EC90 [2]: 47700 ± 45300 nM
- concentrations inhibiting IFN-α induced phosphorylation of STAT1 [16]: sub-micromolar
- EC90 [5]: 8900 ± 8800 nM
- EC90 [6, 27]: 2900 ± 1400 nM
- inhibition of HIV-1 replication ([6]; MØ cells): sub-micromolar
- total cell proliferation (total cell number) [17]: do not affect total cell proliferation
- total cell viability [17]: do not affect total cell viability
- concentrations inhibiting IFN-α induced phosphorylation of STAT3 [18]: sub-micromolar
- EC90 [7]: 1800 ± 1100 nM
- EC90 [8]: 28400 ± 16700 nM
- EC90 [9]: 17100 ± 4500 nM
- EC90 [19]: 900 nM
- EC90 [11]: 27100 ± 15700 nM
- FI50 or FI90 versus wild type HIV-1xxLAI [20]: not significant increase; also recorded: did not display a significant difference
- antiviral potency for wild-type HIV-1xxLAI versus NRTI-resistant HIV-1 [20]: not significantly different
- proliferation versus cells exposed to media alone [21]: not significantly different
- viability versus cells exposed to media alone [21]: not significantly different
- percent inhibition of reactivation of latent HIV-1 versus no drug control [22]: ~40%
- EC90 [12]: 81200 ± 26700 nM
- EC90 [13, 28]: 17100 ± 15100 nM
- inhibition of HIV-1 replication ([13]; PBM cells): sub-micromolar
- concentrations inhibiting IFN-α induced phosphorylation of STAT5 [23]: sub-micromolar
- reservoir reactivation [24]: block reservoir reactivation
- proliferation versus cells exposed to media alone ([25]; 1.0 μM): significantly inhibited
- viability versus cells exposed to media alone ([25]; all concentrations): not significantly different
- EC90 ([14]; Macaca mulatta, Macrophage): ~4000 nM
- EC90 [14]: 3100 ± 900 nM
- EC90 [15]: 2900 ± 500 nM
- size of the HIV reservoir [26]: decay the size of the HIV reservoir
